# Measured values published in patent US8614327B2 (Vertex Pharmaceuticals Incorporated, priority 2004, dated 2013).
# Molecular target: T1, ΔF508-CFTR (Homo sapiens, UniProt P13569, DEL508-508)
# T1 construct: expressed in transfected cells
# Assay: Membrane potential optical (FRET/VIPR) assay, identification of potentiator compounds
# Format: cell-based
# Details: Table 3, assay not given; for % Activity: relative efficacy
# In short: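 Double-addition potentiator screen: compound delivered in gluconate-substituted Cl^--free medium, membrane potential followed via CC2-DMPE/DiSBAC2(3) FRET on VIPR. Cells were ΔF508-CFTR-expressing NIH3T3 mouse fibroblasts, held 2 h at 37° C. then 24 h at 27° C. before assay.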
# T1 sequence (P13569 with tags, fused parts or gaps DEL508-508): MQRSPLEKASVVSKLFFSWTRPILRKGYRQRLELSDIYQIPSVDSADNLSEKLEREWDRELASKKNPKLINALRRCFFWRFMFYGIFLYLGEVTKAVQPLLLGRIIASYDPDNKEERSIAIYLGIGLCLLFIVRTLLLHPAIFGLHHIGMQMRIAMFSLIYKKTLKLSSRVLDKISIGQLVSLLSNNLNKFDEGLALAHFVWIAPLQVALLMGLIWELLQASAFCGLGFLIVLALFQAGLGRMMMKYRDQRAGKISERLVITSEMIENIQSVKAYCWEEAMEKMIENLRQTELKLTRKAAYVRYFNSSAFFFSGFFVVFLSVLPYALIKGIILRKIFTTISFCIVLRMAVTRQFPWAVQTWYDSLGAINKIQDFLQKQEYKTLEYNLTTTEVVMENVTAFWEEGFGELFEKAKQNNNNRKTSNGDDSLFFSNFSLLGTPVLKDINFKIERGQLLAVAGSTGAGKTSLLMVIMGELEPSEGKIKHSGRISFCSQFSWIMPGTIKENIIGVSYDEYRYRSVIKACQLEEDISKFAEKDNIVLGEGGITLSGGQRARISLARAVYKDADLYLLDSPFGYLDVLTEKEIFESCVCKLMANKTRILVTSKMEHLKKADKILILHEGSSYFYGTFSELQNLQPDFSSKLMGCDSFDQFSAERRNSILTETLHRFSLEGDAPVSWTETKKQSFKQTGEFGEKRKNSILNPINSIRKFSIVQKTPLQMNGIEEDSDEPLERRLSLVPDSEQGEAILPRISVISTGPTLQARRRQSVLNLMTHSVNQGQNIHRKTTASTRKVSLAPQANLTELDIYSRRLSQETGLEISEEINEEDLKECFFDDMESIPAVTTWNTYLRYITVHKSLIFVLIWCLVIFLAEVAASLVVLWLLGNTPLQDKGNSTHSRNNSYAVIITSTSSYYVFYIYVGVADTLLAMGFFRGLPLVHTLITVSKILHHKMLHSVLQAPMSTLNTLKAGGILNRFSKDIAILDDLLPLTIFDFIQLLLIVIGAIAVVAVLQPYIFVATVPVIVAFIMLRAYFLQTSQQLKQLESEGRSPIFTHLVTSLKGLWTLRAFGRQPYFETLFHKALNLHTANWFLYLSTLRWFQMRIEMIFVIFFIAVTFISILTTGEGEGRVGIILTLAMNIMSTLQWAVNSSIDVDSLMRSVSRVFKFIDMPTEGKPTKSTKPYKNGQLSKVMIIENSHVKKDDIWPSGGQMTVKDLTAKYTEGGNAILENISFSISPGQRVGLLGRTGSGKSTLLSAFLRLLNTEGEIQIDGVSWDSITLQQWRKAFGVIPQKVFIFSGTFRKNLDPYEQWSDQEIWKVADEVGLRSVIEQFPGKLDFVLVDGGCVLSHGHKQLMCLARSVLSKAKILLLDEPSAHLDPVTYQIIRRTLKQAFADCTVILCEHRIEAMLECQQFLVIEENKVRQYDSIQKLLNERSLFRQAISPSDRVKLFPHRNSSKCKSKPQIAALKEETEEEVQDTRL
structure (smiles),measurement,value
"COc1ccc(-c2ccccc2NC(=O)c2c[nH]c3ccccc3c2=O)cc1OC [Compound 436, N-[2-(3,4-dimethoxyphenyl)phenyl]-4-oxo-1H-quinoline-3-carboxamide]",EC50,< 10 µM
same,% Activity,++ (between 25% to 100%)
"O=C(Nc1ccc2c(c1)OCO2)c1c[nH]c2ccccc2c1=O [Compound 437, N-benzo[1,3]dioxol-5-yl-4-oxo-1H-quinoline-3-carboxamide]",EC50,25 to 60 µM
same,% Activity,+ (<25%)
"CC(C)(C)c1cc(C(C)(C)C)c(C(F)F)cc1NC(=O)c1c[nH]c2ccccc2c1=O [Compound 438, N-[5-(difluoromethyl)-2,4-ditert-butyl-phenyl]-4-oxo-1H-quinoline-3-carboxamide]",EC50,< 10 µM
same,% Activity,++ (between 25% to 100%)
"COc1ccc(NC(=O)c2c[nH]c3ccccc3c2=O)cc1 [Compound 439, N-(4-methoxyphenyl)-4-oxo-1H-quinoline-3-carboxamide]",EC50,< 10 µM
same,% Activity,++ (between 25% to 100%)
"O=C(Nc1ccc2c(c1)OC(F)(F)C(F)(F)O2)c1c[nH]c2ccccc2c1=O [Compound 440, N-(2,2,3,3-tetrafluoro-2,3-dihydrobenzo[b][1,4]dioxin-6-yl)-1,4-dihydro-4-oxoquinoline-3-carboxamide]",EC50,< 10 µM
same,% Activity,++ (between 25% to 100%)
"CS(=O)(=O)Nc1cc(NC(=O)c2c[nH]c3ccccc3c2=O)cc(C(F)(F)F)c1 [Compound 441, N-[3-methylsulfonylamino-5-(trifluoromethyl)phenyl]-4-oxo-1H-quinoline-3-carboxamide]",% Activity,++ (between 25% to 100%)
"O=C(Nc1cccc(S(=O)(=O)N2CCCCC2)c1)c1c[nH]c2ccccc2c1=O [Compound 442, 4-oxo-N-[3-(1-piperidylsulfonyl)phenyl]-1H-quinoline-3-carboxamide]",EC50,25 to 60 µM
same,% Activity,+ (<25%)
"O=C(Nc1ccc2nccnc2c1)c1c[nH]c2ccccc2c1=O [Compound 443, 4-oxo-N-quinoxalin-6-yl-1H-quinoline-3-carboxamide]",EC50,25 to 60 µM
same,% Activity,+ (<25%)
"COC(=O)c1cc(NC(=O)c2c[nH]c3ccccc3c2=O)ccc1C(C)(C)C [Compound 444, 5-[(4-oxo-1H-quinolin-3-yl)carbonylamino]-2-tert-butyl-benzoic acid methyl ester]",EC50,< 10 µM
same,% Activity,++ (between 25% to 100%)
"C=C(C)c1ccccc1NC(=O)c1c[nH]c2ccccc2c1=O [Compound 445, N-(2-isopropenylphenyl)-4-oxo-1H-quinoline-3-carboxamide]",EC50,< 10 µM
same,% Activity,+++ (>100%)
"O=C(Nc1ccc2c(c1)S(=O)(=O)C=C2)c1c[nH]c2ccccc2c1=O [Compound 446, N-(1,1-dioxobenzothiophen-6-yl)-4-oxo-1H-quinoline-3-carboxamide]",EC50,25 to 60 µM
same,% Activity,+ (<25%)
"N#Cc1cccc(NC(=O)c2c[nH]c3ccccc3c2=O)c1 [Compound 447, N-(3-cyanophenyl)-4-oxo-1H-quinoline-3-carboxamide]",EC50,10 to 25 µM
same,% Activity,++ (between 25% to 100%)
"CC(C)(C)c1ccc(NC(=O)c2c[nH]c3ccccc3c2=O)cc1 [Compound 448, 4-oxo-N-(4-tert-butylphenyl)-1H-quinoline-3-carboxamide]",EC50,< 10 µM
same,% Activity,++ (between 25% to 100%)
"Cc1cccc(NC(=O)c2c[nH]c3ccccc3c2=O)c1 [Compound 449, N-(m-tolyl)-4-oxo-1H-quinoline-3-carboxamide]",EC50,< 10 µM
same,% Activity,++ (between 25% to 100%)
"CC(O)c1ccc(NC(=O)c2c[nH]c3ccccc3c2=O)cc1 (stereo not drawn) [Compound 450, N-[4-(1-hydroxyethyl)phenyl]-4-oxo-1H-quinoline-3-carboxamide]",EC50,10 to 25 µM
same,% Activity,++ (between 25% to 100%)
"CCc1cc(C#N)ccc1NC(=O)c1c[nH]c2ccccc2c1=O [Compound 451, N-(4-cyano-2-ethyl-phenyl)-4-oxo-1H-quinoline-3-carboxamide]",EC50,< 10 µM
same,% Activity,++ (between 25% to 100%)
"C=Cc1ccc(NC(=O)c2c[nH]c3ccccc3c2=O)cc1 [Compound 452, 4-oxo-N-(4-vinylphenyl)-1H-quinoline-3-carboxamide]",EC50,< 10 µM
same,% Activity,++ (between 25% to 100%)
"Nc1cc(NC(=O)c2c[nH]c3ccccc3c2=O)ccc1Cl [Compound 453, N-(3-amino-4-chloro-phenyl)-4-oxo-1H-quinoline-3-carboxamide]",EC50,< 10 µM
same,% Activity,++ (between 25% to 100%)
"Cc1ccc(-c2ccccc2)cc1NC(=O)c1c[nH]c2ccccc2c1=O [Compound 454, N-(2-methyl-5-phenyl-phenyl)-4-oxo-1H-quinoline-3-carboxamide]",EC50,25 to 60 µM
same,% Activity,+ (<25%)
"O=C(Nc1ccc(C23CC4CC(CC(C4)C2)C3)cc1)c1c[nH]c2ccccc2c1=O [Compound 455, N-[4-(1-adamantyl)phenyl]-4-oxo-1H-quinoline-3-carboxamide]",EC50,< 10 µM
same,% Activity,++ (between 25% to 100%)
"O=C(Nc1cccc(SC(F)(F)F)c1)c1c[nH]c2ccccc2c1=O [Compound 456, 4-oxo-N-[3-(trifluoromethylsulfanyl)phenyl]-1H-quinoline-3-carboxamide]",EC50,< 10 µM
same,% Activity,++ (between 25% to 100%)
"O=C(Nc1ccc(N2CCOCC2)cc1)c1c[nH]c2ccccc2c1=O [Compound 457, N-(4-morpholinophenyl)-4-oxo-1H-quinoline-3-carboxamide]",EC50,25 to 60 µM
same,% Activity,+ (<25%)
"CC(C)(C)c1ccc(NC(=O)c2c[nH]c3ccccc3c2=O)cc1OCCO [Compound 458, N-[3-(2-hydroxyethoxy)-4-tert-butyl-phenyl]-4-oxo-1H-quinoline-3-carboxamide]",EC50,< 10 µM
same,% Activity,++ (between 25% to 100%)
"Cc1ccccc1NC(=O)c1c[nH]c2ccccc2c1=O [Compound 459, N-(o-tolyl)-4-oxo-1H-quinoline-3-carboxamide]",EC50,< 10 µM
same,% Activity,++ (between 25% to 100%)
"CCCCOC(=O)NCC(C)(C)c1ccc(NC(=O)c2c[nH]c3ccccc3c2=O)cc1 [Compound 460, [2-methyl-2-[4-[(4-oxo-1H-quinolin-3-yl)carbonylamino]phenyl]-propyl]aminoformic acid butyl ester]",EC50,< 10 µM
same,% Activity,++ (between 25% to 100%)
"O=C(Nc1ccccc1-c1ccccc1)c1c[nH]c2ccccc2c1=O [Compound 461, 4-oxo-N-(2-phenylphenyl)-1H-quinoline-3-carboxamide]",EC50,< 10 µM
same,% Activity,++ (between 25% to 100%)
"CCCc1ccc(NC(=O)c2c[nH]c3ccccc3c2=O)cc1N(C)C [Compound 462, N-(3-dimethylamino-4-propyl-phenyl)-4-oxo-1H-quinoline-3-carboxamide]",% Activity,++ (between 25% to 100%)
"CCc1ccc(NC(=O)c2c[nH]c3ccccc3c2=O)cc1 [Compound 463, N-(4-ethylphenyl)-4-oxo-1H-quinoline-3-carboxamide]",% Activity,++ (between 25% to 100%)
"CC(C)(C)c1cc(C(C)(C)C)c(NC(=O)c2c[nH]c3cccc(O)c3c2=O)cc1O [Compound 464, 5-hydroxy-N-(5-hydroxy-2,4-ditert-butyl-phenyl)-4-oxo-1H-quinoline-3-carboxamide]",EC50,< 10 µM
same,% Activity,++ (between 25% to 100%)
"CC(C)(C)OC(=O)NCc1cc(NC(=O)c2c[nH]c3ccccc3c2=O)ccc1C(C)(C)C [Compound 465, [5-[(4-oxo-1H-quinolin-3-yl)carbonylamino]-2-tert-butyl-phenyl]methylaminoformic acid tert-butyl ester]",EC50,< 10 µM
same,% Activity,++ (between 25% to 100%)
"CC(C)c1cccc(C(C)C)c1NC(=O)c1c[nH]c2ccccc2c1=O [Compound 466, N-(2,6-diisopropylphenyl)-4-oxo-1H-quinoline-3-carboxamide]",EC50,< 10 µM
same,% Activity,++ (between 25% to 100%)
"O=C(Nc1ccc2c(c1)CCO2)c1c[nH]c2ccccc2c1=O [Compound 467, N-(2,3-dihydrobenzofuran-5-yl)-4-oxo-1H-quinoline-3-carboxamide]",EC50,25 to 60 µM
same,% Activity,+ (<25%)
"Cn1cc(C(=O)Nc2ccccc2)c(=O)c2ccccc21 [Compound 468, 1-methyl-4-oxo-N-phenyl-1H-quinoline-3-carboxamide]",EC50,25 to 60 µM
same,% Activity,+ (<25%)
"O=C(Nc1ccccc1-c1ccccc1)c1c[nH]c2cc(C(F)(F)F)ccc2c1=O [Compound 469, 4-oxo-N-(2-phenylphenyl)-7-(trifluoromethyl)-1H-quinoline-3-carboxamide]",EC50,< 10 µM
same,% Activity,++ (between 25% to 100%)
"O=C(Nc1ccc(Sc2ccccc2)cc1)c1c[nH]c2ccccc2c1=O [Compound 470, 4-oxo-N-(4-phenylsulfanylphenyl)-1H-quinoline-3-carboxamide]",EC50,< 10 µM
same,% Activity,++ (between 25% to 100%)
"CCCc1ccc(NC(=O)OC)cc1NC(=O)c1c[nH]c2ccccc2c1=O [Compound 471, [3-[(4-oxo-1H-quinoline-3-yl)carbonylamino]-4-propyl-phenyl]aminoformic acid methyl ester]",EC50,< 10 µM
same,% Activity,++ (between 25% to 100%)
"CCOC(=O)Nc1ccc(CC)c(NC(=O)c2c[nH]c3ccccc3c2=O)c1 [Compound 472, [4-ethyl-3-[(4-oxo-1H-quinolin-3-yl)carbonylamino]phenyl]aminoformic acid ethyl ester]",% Activity,++ (between 25% to 100%)
"CC(C)n1cc(C(=O)Nc2ccccc2C(C)(C)C)c(=O)c2ccccc21 [Compound 473, 1-isopropyl-4-oxo-N-(2-tert-butylphenyl)-1H-quinoline-3-carboxamide]",EC50,10 to 25 µM
same,% Activity,++ (between 25% to 100%)
